Experimental findings from patent US20120202751A1, “METHODS OF MONITORING ENDOPLASMIC RETICULUM (ER) STRESS RESPONSE” (The Board of trustees of the Leland Stanford Junior …, priority 2009, published 2012) are described below.

In one assay the test system is XBP1-Luc construct. The assay is described as follows: XBP1-luc reporter luciferase activity in HT1080 cells. The format is cell-based, human. The following applies: for UPR reporter activity, XBP1-luc construct: HT1080 cells, luciferase activity measured after 24 hours. On the procedure:
(§1) FIG. 1 (A) Upper Panel: is a schematic representation of the XBP1-luc reporter construct. Lower panel: is a bar graph of in vitro luciferase activity from different reporter constructs in response to different stresses. HT 1080 cells expressing either a XBP1-luc construct, or an ATF4 or CMV-driven luciferase gene were cultured in 10 μg/ml tunicamycin, glucose depletion, or severe hypoxia (<0.02% O2) for 24 hours to induce ER stress. (B) is a graphical representation of the incidence of breast carcinomas in Tag mice and Tag-Luc double transgenic mice. […] Tumor areas are outlined. Lower panel: are overlays of in vivo bioluminescence on the pictures in the middle panel. (D) is a series of fluorescent micrographs of tissue sections from tumors from Tag-Luc and Tag mice. Frozen sections were stained with antiluciferase and anti-XBP1 (top left two panels), anti-luciferase and anti-BiP (bottom left two panels), anti-luciferase and anti-eIF2α (top right two panels), or the control secondary antibodies (bottom right two panels).
(B) is a bar graph of in vitro XBP1-luc activity in preparations of spontaneous primary tumors from Tag and Tag-Luc mice cultured under normoxic or hypoxic conditions for 48 h. (C) Left panel: are photographs with overlays of in vivo bioluminescence in Tag-Luc mice treated with vehicle or 50 mg/kg DCA (dichloroacetic acid) b.i.d. for 2 days. Bioluminescence was measured after 32 hours. Right panel: is a bar graph of in vivo bioluminescence as shown in the left panel of FIG. 5C and is the average of two experiments. […] Luciferase activity was measured after 24 hours.
The first 208 amino acids of the unspliced human XBP1-1 was amplified by PCR and subcloned into pEGFP-N1 (Clontech, Mountain View, Calif.). This plasmid was subsequently digested with Bam HI and Not Ito remove the EGFP and a PCR-generated firefly luciferase gene was cloned downstream of the XBP1-1 gene such that the luciferase gene was in frame only in the “spliced” reading frame. […]

In a further assay the test system is ATF4-Luc. The assay is described as follows: ATF4-luc UPR reporter luciferase activity in HT1080 cells. The format is cell-based, human. The following applies: for UPR reporter activity, ATF4-luc construct: luciferase activity measured after 24 hours. On the procedure: as §1
(B) is a bar graph of in vitro XBP1-luc activity in preparations of spontaneous primary tumors from Tag and Tag-Luc mice cultured under normoxic or hypoxic conditions for 48 h. (C) Left panel: are photographs with overlays of in vivo bioluminescence in Tag-Luc mice treated with vehicle or 50 mg/kg DCA (dichloroacetic acid) b.i.d. for 2 days. Bioluminescence was measured after 32 hours. Right panel: is a bar graph of in vivo bioluminescence as shown in the left panel of FIG. 5C and is the average of two experiments. (D) is a bar graph of in vitro luciferase activity in HT1080 cells containing CMV, XBP1, or ATF4-luciferase reporters after treatment with 2-DG, DCA, or glucose deprivation. Luciferase activity was measured after 24 hours.
This reporter construct was tested in vitro. The human fibrosarcoma cell line HT1080 was obtained from ATCC (Manassas, Va.). Cells were maintained at 37° C. with 5% CO2 in DMEM supplemented with 10% FBS and 1% penicillin-streptomycin antibiotics. HT1080 cells (FIG. 1A, lower panel) were stably transfected with the XBP1-Luc construct. […]

Assay [1] deals with XBP1-luc activity. The assay is described as follows: In vivo bioluminescence of primary tumors in Tag-Luc mice. Here is the method: Mice were injected with fluorescently-labeled 2-DG or RGD peptide or dye alone and imaged 24 hours later for in vivo bioluminescence and 2-DG, RGD peptide, and dye uptake. Dark arrows indicate tumors with high in vivo bioluminescence and light arrows indicate tumors with low in vivo bioluminescence. (B) is a plot of 2-DG signal against in vivo bioluminescence for the mice imaged in FIG. 4(A). (C) is a bar graph of in vivo bioluminescence in autochthonous tumors after 24 hours of glucose deprivation. (D) Left panel: are photographs with overlays of in vivo bioluminescence of Tag-Luc mice at 0 and 12 hours after treatment with 2 mg of 2-DG or vehicle i.p. Arrows indicate palpable tumors. […]
(B) is a bar graph of in vitro XBP1-luc activity in preparations of spontaneous primary tumors from Tag and Tag-Luc mice cultured under normoxic or hypoxic conditions for 48 h. […] Bioluminescence was measured after 32 hours. […] Luciferase activity was measured after 24 hours.
In vivo bioluminescence, which corresponds to XBP1-Luc activity, was detected noninvasively using the IVIS imaging system (Caliper LifeSciences, Hopkinton, Mass.). […] Image analysis and quantification was performed using Living Image software (Caliper LifeSciences, Hopkinton, Mass.). All images were analyzed with a binning of 10. […]

The test system of assay [2] is XBP1-luc activity. In words: In vitro luciferase activity of cultured Hi and Lo primary tumors from Tag-Luc mice. The following applies: primary Tag-Luc tumors after 7-10 days of in vitro culture. It is filed as cell-based. On the procedure:
FIG. 3 (A) is a bar graph of in vitro luciferase activity of primary tumors from Tag-Luc mice with “Hi” or “Lo” in vivo bioluminesence or tumors from Tag mice after 7-10 days of in vitro culture. Luciferase activity was also measured following tunicamycin treatment. (B) Left panels: are photographs of Tag-Luc mice bearing tumors with synchronous Hi (dark outline in the upper panel) and Lo (light outlines) in vivo bioluminescence (overlays, lower panel). Right panels: are photographs, including bioluminescent overlay, of transplanted Hi (dark circle/arrow; upper left flank) and Lo (light circles/arrows) primary tumors from Tag-Luc mice 14 days after subcutaneously transplantation into four separate quadrants on the dorsal surface of syngeneic FVB mice. (C) is a bar graph of in vivo bioluminesence of primary and transplanted Hi and Lo tumors. Results are the average of four independent experiments.
Tumors isolated ex vivo from Tag-Luc transgenic mice had 14.5-fold greater luciferase activity than tumors isolated from control Tag transgenic mice (FIG. 2A, middle panel; p=0.0001; n=16 for Tag mice, n=33 for Tag-Luc mice). […] Luciferase activity was detected on a Monolight 2010 (Analytic Luminescence Laboratory, San Diego, Calif.).

Turning to `O=CC[C@@H](O)[C@H](O)[C@H](O)CO` [Compound 2-DG, 2-deoxy-d-glucose], the “UPR reporter activity, XBP1-luc construct” value in the assay with XBP1-Luc construct is “did induce UPR reporter activity”. Moreover, the “UPR reporter activity, ATF4-luc construct” value in the assay with ATF4-Luc is “did induce UPR reporter activity”. In addition, in the assay on XBP1-luc activity [1] (Tag-Luc mice, 2 mg 2-DG i.p., 12 hours, p=0.01), the “increase in tumor bioluminescence compared to control mice” value came out at 1.78 fold.

Take `O=C(O)C(Cl)Cl` [DCA, dichloroacetic acid]: in the assay on XBP1-Luc construct, the “UPR reporter activity, XBP1-luc construct” value is “did not induce UPR reporter activity”. Further, in the assay with ATF4-Luc, the “UPR reporter activity, ATF4-luc construct” value is given as “did not induce UPR reporter activity”. In the assay with XBP1-luc activity [1] (repeated injections, 50 mg/kg b.i.d. for 2 days, measured after 32 hours), the “increase in bioluminescent signal of primary Tag-Luc tumors” value was determined as 2.0 fold.

Turning to tunicamycin, the “luciferase activity, XBP1-Luc cells” value in the assay on XBP1-Luc construct (HT1080 cells stably transfected with XBP1-Luc, 10 μg/ml tunicamycin, 24 hours, compared to CMV-Luc control cells) is reported as “strongly induced luciferase activity”. Further, the ATF4-Luc reporter induction entry in the assay on ATF4-Luc (10 μg/ml tunicamycin, 24 hours) is given as “also induced”. In the assay with XBP1-luc activity [2], the “XBP1-luc activity in Hi and Lo tumors” value was “increased”.
